{"source": "the kinase profiling compilation of Christmann-Franck et al. (2016)", "assay_in_all_cases": "KINOMEscan competition binding", "details_in_all_cases": "compound 10.0 µM", "key": {"RPS6KA1 KD2 (human)": {"biological_target": "RPS6KA1 KD2 (human) (UniProt Q15418)"}, "NEK1 (human)": {"biological_target": "NEK1 (human) (UniProt Q96PY6)"}, "MAP3K10 (human)": {"biological_target": "MAP3K10 (human) (UniProt Q02779)"}, "[1]": {"biological_target": "JAK3 JH1 catalytic (human) (UniProt P52333)"}, "NTRK1 (human)": {"biological_target": "NTRK1 (human) (UniProt P04629)"}, "CAMKK2 (human)": {"biological_target": "CAMKK2 (human) (UniProt Q96RR4)"}, "[2]": {"tested_on": "ABL1 (human), P00519 [M351T]"}, "GSK3A (human)": {"biological_target": "GSK3A (human) (UniProt P49840)", "sequence (P49840 whole entry, looked up)": "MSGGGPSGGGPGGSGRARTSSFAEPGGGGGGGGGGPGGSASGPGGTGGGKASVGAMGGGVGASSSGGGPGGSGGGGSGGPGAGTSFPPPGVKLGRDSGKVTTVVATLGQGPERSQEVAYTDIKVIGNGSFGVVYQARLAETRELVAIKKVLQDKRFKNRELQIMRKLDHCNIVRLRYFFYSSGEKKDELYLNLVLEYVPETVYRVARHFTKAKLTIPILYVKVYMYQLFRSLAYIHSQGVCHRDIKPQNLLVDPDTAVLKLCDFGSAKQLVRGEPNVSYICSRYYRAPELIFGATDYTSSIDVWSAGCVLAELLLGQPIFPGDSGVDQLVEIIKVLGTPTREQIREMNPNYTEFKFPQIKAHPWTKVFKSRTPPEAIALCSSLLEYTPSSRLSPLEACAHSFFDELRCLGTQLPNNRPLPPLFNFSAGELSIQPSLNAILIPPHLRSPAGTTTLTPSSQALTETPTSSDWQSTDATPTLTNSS"}, "DAPK1 (human)": {"biological_target": "DAPK1 (human) (UniProt P53355)"}, "PIK3CA (human)": {"biological_target": "PIK3CA (human) (UniProt P42336)", "sequence (P42336 whole entry, looked up)": "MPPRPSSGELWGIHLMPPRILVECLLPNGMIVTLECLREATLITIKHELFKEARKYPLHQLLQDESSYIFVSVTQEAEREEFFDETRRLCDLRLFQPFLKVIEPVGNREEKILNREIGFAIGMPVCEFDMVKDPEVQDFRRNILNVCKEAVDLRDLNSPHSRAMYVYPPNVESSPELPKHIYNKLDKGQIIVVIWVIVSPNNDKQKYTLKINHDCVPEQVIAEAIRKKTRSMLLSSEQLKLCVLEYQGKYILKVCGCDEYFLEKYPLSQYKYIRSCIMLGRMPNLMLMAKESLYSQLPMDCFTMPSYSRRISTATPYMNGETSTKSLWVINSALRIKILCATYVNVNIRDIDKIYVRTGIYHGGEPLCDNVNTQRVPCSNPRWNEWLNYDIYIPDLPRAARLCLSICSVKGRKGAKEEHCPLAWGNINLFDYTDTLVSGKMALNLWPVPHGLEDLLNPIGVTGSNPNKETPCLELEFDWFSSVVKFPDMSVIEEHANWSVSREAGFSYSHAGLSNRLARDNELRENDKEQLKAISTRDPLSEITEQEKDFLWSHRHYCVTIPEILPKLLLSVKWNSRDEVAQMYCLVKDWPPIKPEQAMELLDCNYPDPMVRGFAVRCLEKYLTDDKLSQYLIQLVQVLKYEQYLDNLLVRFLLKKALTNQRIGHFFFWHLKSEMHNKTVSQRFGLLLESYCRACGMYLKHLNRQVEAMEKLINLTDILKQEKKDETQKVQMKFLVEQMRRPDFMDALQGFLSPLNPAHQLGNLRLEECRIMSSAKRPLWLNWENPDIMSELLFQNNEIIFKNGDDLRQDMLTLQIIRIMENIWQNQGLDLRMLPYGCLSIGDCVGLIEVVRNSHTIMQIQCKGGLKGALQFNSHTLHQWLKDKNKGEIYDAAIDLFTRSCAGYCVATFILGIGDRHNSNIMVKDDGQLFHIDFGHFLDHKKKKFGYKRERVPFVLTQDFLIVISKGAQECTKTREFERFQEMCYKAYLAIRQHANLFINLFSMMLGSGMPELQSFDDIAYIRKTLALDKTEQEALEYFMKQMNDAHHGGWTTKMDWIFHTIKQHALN"}, "PI4KB (human)": {"biological_target": "PI4KB (human) (UniProt Q9UBF8)"}, "SRPK2 (human)": {"biological_target": "SRPK2 (human) (UniProt P78362)"}, "TNK2 (human)": {"biological_target": "TNK2 (human) (UniProt Q07912)"}, "CDK16 (human)": {"biological_target": "CDK16 (human) (UniProt Q00536)"}, "MAP4K3 (human)": {"biological_target": "MAP4K3 (human) (UniProt Q8IVH8)"}, "PRKAA2 (human)": {"biological_target": "PRKAA2 (human) (UniProt P54646)", "sequence (P54646 whole entry, looked up)": "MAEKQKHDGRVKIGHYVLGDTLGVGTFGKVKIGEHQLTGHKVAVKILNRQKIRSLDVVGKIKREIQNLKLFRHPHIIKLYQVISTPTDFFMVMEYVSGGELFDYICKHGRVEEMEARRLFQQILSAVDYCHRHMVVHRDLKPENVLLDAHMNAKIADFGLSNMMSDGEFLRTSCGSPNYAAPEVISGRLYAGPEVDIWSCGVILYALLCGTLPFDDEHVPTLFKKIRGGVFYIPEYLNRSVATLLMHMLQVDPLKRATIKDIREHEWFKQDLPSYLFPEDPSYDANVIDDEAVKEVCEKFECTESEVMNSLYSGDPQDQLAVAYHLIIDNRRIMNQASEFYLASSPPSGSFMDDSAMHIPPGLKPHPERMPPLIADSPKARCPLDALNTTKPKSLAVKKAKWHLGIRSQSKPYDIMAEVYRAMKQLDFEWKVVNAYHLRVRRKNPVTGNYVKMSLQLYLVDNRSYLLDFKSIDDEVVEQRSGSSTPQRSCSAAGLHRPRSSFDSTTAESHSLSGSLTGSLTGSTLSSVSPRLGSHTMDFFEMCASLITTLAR"}, "DMPK (human)": {"biological_target": "DMPK (human) (UniProt Q09013)"}, "WEE1 (human)": {"biological_target": "WEE1 (human) (UniProt P30291)"}, "PRKX (human)": {"biological_target": "PRKX (human) (UniProt P51817)"}, "MAP3K7 (human)": {"biological_target": "MAP3K7 (human) (UniProt O43318)"}, "RPS6KA1 KD1 (human)": {"biological_target": "RPS6KA1 KD1 (human) (UniProt Q15418)"}, "ACVR2B (human)": {"biological_target": "ACVR2B (human) (UniProt Q13705)"}, "SLK (human)": {"biological_target": "SLK (human) (UniProt Q9H2G2)", "sequence (Q9H2G2 whole entry, looked up)": "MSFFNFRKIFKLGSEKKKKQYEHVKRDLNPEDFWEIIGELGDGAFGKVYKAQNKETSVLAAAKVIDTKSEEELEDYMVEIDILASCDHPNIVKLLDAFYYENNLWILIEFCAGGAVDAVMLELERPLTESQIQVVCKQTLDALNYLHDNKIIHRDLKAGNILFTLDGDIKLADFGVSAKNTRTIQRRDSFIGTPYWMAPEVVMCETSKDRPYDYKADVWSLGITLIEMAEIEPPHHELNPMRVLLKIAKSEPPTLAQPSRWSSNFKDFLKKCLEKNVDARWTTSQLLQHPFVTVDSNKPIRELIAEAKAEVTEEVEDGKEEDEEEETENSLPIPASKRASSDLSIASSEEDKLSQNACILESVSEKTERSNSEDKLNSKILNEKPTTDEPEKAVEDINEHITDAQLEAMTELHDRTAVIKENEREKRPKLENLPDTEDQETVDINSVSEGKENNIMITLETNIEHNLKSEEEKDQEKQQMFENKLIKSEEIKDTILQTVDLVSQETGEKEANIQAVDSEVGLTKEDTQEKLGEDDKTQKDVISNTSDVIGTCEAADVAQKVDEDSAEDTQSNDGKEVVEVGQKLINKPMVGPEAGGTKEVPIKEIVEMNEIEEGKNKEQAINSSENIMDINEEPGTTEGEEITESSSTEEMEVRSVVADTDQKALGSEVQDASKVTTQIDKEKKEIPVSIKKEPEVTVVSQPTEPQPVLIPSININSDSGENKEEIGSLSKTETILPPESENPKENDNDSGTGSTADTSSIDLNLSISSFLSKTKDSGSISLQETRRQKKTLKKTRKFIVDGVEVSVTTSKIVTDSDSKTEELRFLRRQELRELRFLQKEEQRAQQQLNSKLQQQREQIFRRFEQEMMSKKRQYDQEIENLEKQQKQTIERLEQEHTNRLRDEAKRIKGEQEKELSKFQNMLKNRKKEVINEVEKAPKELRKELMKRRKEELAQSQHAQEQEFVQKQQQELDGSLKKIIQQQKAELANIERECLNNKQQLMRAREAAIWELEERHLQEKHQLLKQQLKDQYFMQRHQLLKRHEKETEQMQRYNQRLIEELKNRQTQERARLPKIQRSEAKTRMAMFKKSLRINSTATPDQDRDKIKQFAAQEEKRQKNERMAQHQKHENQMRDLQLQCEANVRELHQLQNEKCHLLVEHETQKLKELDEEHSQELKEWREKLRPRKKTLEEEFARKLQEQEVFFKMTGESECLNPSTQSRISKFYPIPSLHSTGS"}, "EPHB6 (human)": {"biological_target": "EPHB6 (human) (UniProt O15197)"}, "PRKACB (human)": {"biological_target": "PRKACB (human) (UniProt P22694)"}, "AKT1 (human)": {"biological_target": "AKT1 (human) (UniProt P31749)"}, "RIOK2 (human)": {"biological_target": "RIOK2 (human) (UniProt Q9BVS4)"}, "[3]": {"tested_on": "PIK3CA (human), P42336 [C420R]", "sequence (P42336 whole entry C420R, looked up)": "as the sequence (P42336 whole entry, looked up) above, with C420R counted along it"}, "AXL (human)": {"biological_target": "AXL (human) (UniProt P30530)"}, "CAMK2G (human)": {"biological_target": "CAMK2G (human) (UniProt Q13555)"}, "[4]": {"tested_on": "FLT3 (human), P36888 [K663Q]"}, "CDK7 (human)": {"biological_target": "CDK7 (human) (UniProt P50613)", "sequence (P50613 whole entry, looked up)": "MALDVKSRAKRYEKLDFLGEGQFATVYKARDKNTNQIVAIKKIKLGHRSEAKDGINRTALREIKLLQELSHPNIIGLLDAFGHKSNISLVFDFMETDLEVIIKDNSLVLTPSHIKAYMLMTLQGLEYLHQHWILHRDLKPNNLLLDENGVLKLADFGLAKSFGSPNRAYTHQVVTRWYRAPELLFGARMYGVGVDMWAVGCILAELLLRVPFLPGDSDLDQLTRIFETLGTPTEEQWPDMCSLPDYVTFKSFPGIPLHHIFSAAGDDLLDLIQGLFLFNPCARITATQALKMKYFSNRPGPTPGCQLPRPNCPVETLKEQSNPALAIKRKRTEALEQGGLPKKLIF"}, "STK4 (human)": {"biological_target": "STK4 (human) (UniProt Q13043)"}, "FGFR2 (human)": {"biological_target": "FGFR2 (human) (UniProt P21802)"}, "MAP2K6 (human)": {"biological_target": "MAP2K6 (human) (UniProt P52564)", "sequence (P52564 whole entry, looked up)": "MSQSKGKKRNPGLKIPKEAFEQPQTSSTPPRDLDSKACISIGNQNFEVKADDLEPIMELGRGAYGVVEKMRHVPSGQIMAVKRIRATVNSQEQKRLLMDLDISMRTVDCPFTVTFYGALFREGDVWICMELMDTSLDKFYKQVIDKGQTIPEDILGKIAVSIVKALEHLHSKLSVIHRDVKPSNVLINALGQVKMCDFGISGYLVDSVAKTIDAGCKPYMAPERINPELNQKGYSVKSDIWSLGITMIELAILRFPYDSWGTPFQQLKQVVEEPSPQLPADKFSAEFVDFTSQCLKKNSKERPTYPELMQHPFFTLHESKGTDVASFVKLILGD"}, "EPHB1 (human)": {"biological_target": "EPHB1 (human) (UniProt P54762)"}, "TGFBR1 (human)": {"biological_target": "TGFBR1 (human) (UniProt P36897)", "sequence (P36897 whole entry, looked up)": "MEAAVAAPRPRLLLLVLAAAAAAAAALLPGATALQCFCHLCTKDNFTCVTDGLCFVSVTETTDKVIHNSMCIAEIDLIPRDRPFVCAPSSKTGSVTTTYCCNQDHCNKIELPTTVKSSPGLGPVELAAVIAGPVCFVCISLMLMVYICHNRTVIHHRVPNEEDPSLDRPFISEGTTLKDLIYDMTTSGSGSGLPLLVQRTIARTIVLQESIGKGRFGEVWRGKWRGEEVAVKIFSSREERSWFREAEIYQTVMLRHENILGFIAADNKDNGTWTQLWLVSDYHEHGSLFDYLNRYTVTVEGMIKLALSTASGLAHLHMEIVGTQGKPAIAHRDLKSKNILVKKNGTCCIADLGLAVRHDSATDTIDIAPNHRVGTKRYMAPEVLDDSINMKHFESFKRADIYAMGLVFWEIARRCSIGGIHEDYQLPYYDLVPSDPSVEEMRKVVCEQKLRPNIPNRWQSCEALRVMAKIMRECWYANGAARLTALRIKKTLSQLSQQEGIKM"}, "MAPK14 (human)": {"biological_target": "MAPK14 (human) (UniProt Q16539)", "sequence (Q16539 whole entry, looked up)": "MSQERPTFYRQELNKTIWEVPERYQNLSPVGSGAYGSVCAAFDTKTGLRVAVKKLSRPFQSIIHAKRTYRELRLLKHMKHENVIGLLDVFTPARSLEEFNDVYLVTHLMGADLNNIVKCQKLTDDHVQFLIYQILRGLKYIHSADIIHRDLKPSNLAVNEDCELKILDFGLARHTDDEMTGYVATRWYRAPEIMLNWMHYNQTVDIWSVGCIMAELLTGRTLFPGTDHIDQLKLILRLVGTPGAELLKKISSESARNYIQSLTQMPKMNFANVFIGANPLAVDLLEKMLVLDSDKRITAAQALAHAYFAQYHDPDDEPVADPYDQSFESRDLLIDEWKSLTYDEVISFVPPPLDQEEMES"}, "YES1 (human)": {"biological_target": "YES1 (human) (UniProt P07947)"}, "[5]": {"tested_on": "ABL1 (human), P00519 [H396P]"}, "PHKG1 (human)": {"biological_target": "PHKG1 (human) (UniProt Q16816)"}}}
{"smiles": "O=C1Nc2cc(Br)ccc2/C1=C1/Nc2ccccc2/C1=N\\O", "values": [{"measurement": "kinase still bound, per cent of control", "setting": "RPS6KA1 KD2 (human)", "value": 47, "unit": "%"}, {"measurement": "kinase still bound, per cent of control", "setting": "NEK1 (human)", "value": 70, "unit": "%"}, {"measurement": "kinase still bound, per cent of control", "setting": "MAP3K10 (human)", "value": 100, "unit": "%"}, {"measurement": "kinase still bound, per cent of control", "setting": "[1]", "value": 6.3, "unit": "%"}, {"measurement": "kinase still bound, per cent of control", "setting": "NTRK1 (human)", "value": 19, "unit": "%"}, {"measurement": "kinase still bound, per cent of control", "setting": "CAMKK2 (human)", "value": 37, "unit": "%"}, {"measurement": "kinase still bound, per cent of control", "setting": "[2]", "value": 2.2, "unit": "%"}, {"measurement": "kinase still bound, per cent of control", "setting": "GSK3A (human)", "value": 0, "unit": "%"}, {"measurement": "kinase still bound, per cent of control", "setting": "DAPK1 (human)", "value": 3.6, "unit": "%"}, {"measurement": "kinase still bound, per cent of control", "setting": "PIK3CA (human)", "value": 93, "unit": "%"}, {"measurement": "kinase still bound, per cent of control", "setting": "PI4KB (human)", "value": 39, "unit": "%"}, {"measurement": "kinase still bound, per cent of control", "setting": "SRPK2 (human)", "value": 5.8, "unit": "%"}, {"measurement": "kinase still bound, per cent of control", "setting": "TNK2 (human)", "value": 28, "unit": "%"}, {"measurement": "kinase still bound, per cent of control", "setting": "CDK16 (human)", "value": 0, "unit": "%"}, {"measurement": "kinase still bound, per cent of control", "setting": "MAP4K3 (human)", "value": 24, "unit": "%"}, {"measurement": "kinase still bound, per cent of control", "setting": "PRKAA2 (human)", "value": 4.2, "unit": "%"}, {"measurement": "kinase still bound, per cent of control", "setting": "DMPK (human)", "value": 100, "unit": "%"}, {"measurement": "kinase still bound, per cent of control", "setting": "WEE1 (human)", "value": 87, "unit": "%"}, {"measurement": "kinase still bound, per cent of control", "setting": "PRKX (human)", "value": 100, "unit": "%"}, {"measurement": "kinase still bound, per cent of control", "setting": "MAP3K7 (human)", "value": 20, "unit": "%"}, {"measurement": "kinase still bound, per cent of control", "setting": "RPS6KA1 KD1 (human)", "value": 3.1, "unit": "%"}, {"measurement": "kinase still bound, per cent of control", "setting": "ACVR2B (human)", "value": 20, "unit": "%"}, {"measurement": "kinase still bound, per cent of control", "setting": "SLK (human)", "value": 44, "unit": "%"}, {"measurement": "kinase still bound, per cent of control", "setting": "EPHB6 (human)", "value": 0.3, "unit": "%"}, {"measurement": "kinase still bound, per cent of control", "setting": "PRKACB (human)", "value": 100, "unit": "%"}, {"measurement": "kinase still bound, per cent of control", "setting": "AKT1 (human)", "value": 100, "unit": "%"}, {"measurement": "kinase still bound, per cent of control", "setting": "RIOK2 (human)", "value": 18, "unit": "%"}, {"measurement": "kinase still bound, per cent of control", "setting": "[3]", "value": 100, "unit": "%"}, {"measurement": "kinase still bound, per cent of control", "setting": "AXL (human)", "value": 0.25, "unit": "%"}, {"measurement": "kinase still bound, per cent of control", "setting": "CAMK2G (human)", "value": 8.8, "unit": "%"}, {"measurement": "kinase still bound, per cent of control", "setting": "[4]", "value": 0, "unit": "%"}, {"measurement": "kinase still bound, per cent of control", "setting": "CDK7 (human)", "value": 12, "unit": "%"}, {"measurement": "kinase still bound, per cent of control", "setting": "STK4 (human)", "value": 6.5, "unit": "%"}, {"measurement": "kinase still bound, per cent of control", "setting": "FGFR2 (human)", "value": 15, "unit": "%"}, {"measurement": "kinase still bound, per cent of control", "setting": "MAP2K6 (human)", "value": 47, "unit": "%"}, {"measurement": "kinase still bound, per cent of control", "setting": "EPHB1 (human)", "value": 43, "unit": "%"}, {"measurement": "kinase still bound, per cent of control", "setting": "TGFBR1 (human)", "value": 83, "unit": "%"}, {"measurement": "kinase still bound, per cent of control", "setting": "MAPK14 (human)", "value": 92, "unit": "%"}, {"measurement": "kinase still bound, per cent of control", "setting": "YES1 (human)", "value": 6.4, "unit": "%"}, {"measurement": "kinase still bound, per cent of control", "setting": "[5]", "value": 4.5, "unit": "%"}, {"measurement": "kinase still bound, per cent of control", "setting": "PHKG1 (human)", "value": 15, "unit": "%"}]}
{"smiles": "COc1ccc(CNC(=O)Nc2ncc([N+](=O)[O-])s2)cc1", "values": [{"measurement": "kinase still bound, per cent of control", "setting": "RPS6KA1 KD2 (human)", "value": 100, "unit": "%"}, {"measurement": "kinase still bound, per cent of control", "setting": "NEK1 (human)", "value": 100, "unit": "%"}, {"measurement": "kinase still bound, per cent of control", "setting": "MAP3K10 (human)", "value": 87, "unit": "%"}, {"measurement": "kinase still bound, per cent of control", "setting": "[1]", "value": 100, "unit": "%"}, {"measurement": "kinase still bound, per cent of control", "setting": "CAMKK2 (human)", "value": 100, "unit": "%"}, {"measurement": "kinase still bound, per cent of control", "setting": "[2]", "value": 63, "unit": "%"}, {"measurement": "kinase still bound, per cent of control", "setting": "GSK3A (human)", "value": 0.1, "unit": "%"}, {"measurement": "kinase still bound, per cent of control", "setting": "DAPK1 (human)", "value": 99, "unit": "%"}, {"measurement": "kinase still bound, per cent of control", "setting": "PIK3CA (human)", "value": 100, "unit": "%"}, {"measurement": "kinase still bound, per cent of control", "setting": "PI4KB (human)", "value": 100, "unit": "%"}, {"measurement": "kinase still bound, per cent of control", "setting": "SRPK2 (human)", "value": 81, "unit": "%"}, {"measurement": "kinase still bound, per cent of control", "setting": "TNK2 (human)", "value": 96, "unit": "%"}, {"measurement": "kinase still bound, per cent of control", "setting": "CDK16 (human)", "value": 15, "unit": "%"}, {"measurement": "kinase still bound, per cent of control", "setting": "MAP4K3 (human)", "value": 90, "unit": "%"}, {"measurement": "kinase still bound, per cent of control", "setting": "PRKAA2 (human)", "value": 96, "unit": "%"}, {"measurement": "kinase still bound, per cent of control", "setting": "DMPK (human)", "value": 100, "unit": "%"}, {"measurement": "kinase still bound, per cent of control", "setting": "WEE1 (human)", "value": 80, "unit": "%"}, {"measurement": "kinase still bound, per cent of control", "setting": "PRKX (human)", "value": 42, "unit": "%"}, {"measurement": "kinase still bound, per cent of control", "setting": "MAP3K7 (human)", "value": 88, "unit": "%"}, {"measurement": "kinase still bound, per cent of control", "setting": "RPS6KA1 KD1 (human)", "value": 100, "unit": "%"}, {"measurement": "kinase still bound, per cent of control", "setting": "ACVR2B (human)", "value": 100, "unit": "%"}, {"measurement": "kinase still bound, per cent of control", "setting": "SLK (human)", "value": 100, "unit": "%"}, {"measurement": "kinase still bound, per cent of control", "setting": "EPHB6 (human)", "value": 100, "unit": "%"}, {"measurement": "kinase still bound, per cent of control", "setting": "PRKACB (human)", "value": 98, "unit": "%"}, {"measurement": "kinase still bound, per cent of control", "setting": "AKT1 (human)", "value": 86, "unit": "%"}, {"measurement": "kinase still bound, per cent of control", "setting": "RIOK2 (human)", "value": 23, "unit": "%"}, {"measurement": "kinase still bound, per cent of control", "setting": "[3]", "value": 95, "unit": "%"}, {"measurement": "kinase still bound, per cent of control", "setting": "AXL (human)", "value": 100, "unit": "%"}, {"measurement": "kinase still bound, per cent of control", "setting": "CAMK2G (human)", "value": 100, "unit": "%"}, {"measurement": "kinase still bound, per cent of control", "setting": "[4]", "value": 70, "unit": "%"}, {"measurement": "kinase still bound, per cent of control", "setting": "CDK7 (human)", "value": 100, "unit": "%"}, {"measurement": "kinase still bound, per cent of control", "setting": "STK4 (human)", "value": 100, "unit": "%"}, {"measurement": "kinase still bound, per cent of control", "setting": "FGFR2 (human)", "value": 81, "unit": "%"}, {"measurement": "kinase still bound, per cent of control", "setting": "MAP2K6 (human)", "value": 98, "unit": "%"}, {"measurement": "kinase still bound, per cent of control", "setting": "EPHB1 (human)", "value": 85, "unit": "%"}, {"measurement": "kinase still bound, per cent of control", "setting": "TGFBR1 (human)", "value": 82, "unit": "%"}, {"measurement": "kinase still bound, per cent of control", "setting": "MAPK14 (human)", "value": 100, "unit": "%"}, {"measurement": "kinase still bound, per cent of control", "setting": "YES1 (human)", "value": 83, "unit": "%"}, {"measurement": "kinase still bound, per cent of control", "setting": "[5]", "value": 75, "unit": "%"}, {"measurement": "kinase still bound, per cent of control", "setting": "PHKG1 (human)", "value": 97, "unit": "%"}]}
